We go through one compound from patent US20130310347A1, “MULTI-MODALITY MOLECULAR IMAGING HIGH-THROUGHPUT ASSAY FOR IDENTIFYING HEAT SHOCK PROTEIN 90 (HSP90) INHIBITORS” (The Board of Trustees of the Leland Stanford Junior …, priority 2012, published 2013).

Test [1] deals with endogenous Hsp90(α/β)/p23 interactions. The test can be described thus: Co-immunoprecipitation of Hsp90(α/β)/p23. It counts as cell-based, human. The following applies: 5 μM, 24 h, 293T cells. Here is the method: FIG. 5B is a digital image of a western blot analysis illustrating the effects of compounds CP1, CP9 and CP18 on disruption of Hsp90α/p23 and Hsp90β/p23 as determined by co-immunoprecipitation using antibodies against p23 and probing with Hsp90α- and Hsp90β-specific antibodies. The blot was probed with antibodies against p23 to ensure similar immunoprecipitation efficiency. Cells treated with 2 μM of PU-H71 served as a positive control.
Cells treated with PU-H71 (2 μM) served as a positive control.
Cells treated with 2 μM of PU-H71 served as a positive control. Western blotting of Hsp70, phosphorylated and total Akt and co-immunoprecipitation of Hsp90(α/β)/p23 interactions was performed as described Inglese et al., (2006) Proc. Nat. Acad. Sci. U.S.A. 103: 11473-11478, incorporated herein by reference in its entirety. The expression of Raf-1 was determined using rabbit polyclonal antibodies against Raf-1 (0.5 μg/ml, Abcam).

In test [2] the test system is Hsp90 client proteins (phosphorylated/total Akt, Raf-1). The test can be described thus: Ex vivo western blotting of excised tumors. It counts as in vivo, mice. Conditions: western blotting after last imaging time point; p>0.05. Here is the method:
To determine if the inhibition of Hsp90(α/β)/p23 interactions also leads to degradation of Hsp90 client proteins in mice, tumors were excised from sacrificed mice after the last PET/CT imaging time point. The expression of phosphorylated/total Akt and Raf-1 in tumor lysates was determined by western blotting. α-tubulin was used as a loading control.
Mice were euthanized after the last imaging time points and tumors were excised and homogenized in tissue extraction buffer in the presence of HALT® protease and phosphatase inhibitors (all from Pierce, Ill.). Protein concentrations were determined by Biorad Protein Dc assay. The expression of phosphorylated/total Akt, Raf-1 and […] were determined by western blotting as described in Chan et al., (2008) Cancer Res. 68: 216-226. Western blot images were quantitated using NIH Image J, and expressed as the ratio of target protein/α-tubulin for each treatment group.

Take `Cc1cc(NC(=O)CSc2nc(-c3cccs3)cc(C(F)(F)F)n2)no1` [CP9, N-(5-methylisoxazol-3-yl)-2-(4-(thiophen-2-yl)-6-(trifluoromethyl)pyrimidin-2-ylthio)acetamide]: the “disruption of endogenous Hsp90(α/β)/p23 interactions by co-immunoprecipitation” value in test [1] is given as “disruption of endogenous Hsp90(α/β)/p23 interactions”. Also, the “Hsp90 client proteins in excised tumors relative to carrier control” value in test [2] is “did not lead to significant degradation”.
